Article PMC13110267, “Fair and Square: Design, Synthesis and Biological Evaluations of Squaric Acid Derivatives as Novel HDAC8 Inhibitors” (Chemmedchem, 2026)

How the values were obtained:
Type in all cases: biochemical
[1] = biological target: T1, HDAC8 (Homo sapiens, UniProt Q9BY41); assay: HDAC8 fluorometric enzyme inhibition assay, purified recombinant enzyme, 10-point dose-response; conditions: for IC50: Table 1, purified recombinant HDAC8 10 nM, mean of three independent experiments, >35 µM = weak inhibitor; for IC50 (HDAC4)/IC50 (HDAC8): selectivity ratio HDAC8 over HDAC4
T1 construct: made in house
T1 sequence (Q9BY41 1-377): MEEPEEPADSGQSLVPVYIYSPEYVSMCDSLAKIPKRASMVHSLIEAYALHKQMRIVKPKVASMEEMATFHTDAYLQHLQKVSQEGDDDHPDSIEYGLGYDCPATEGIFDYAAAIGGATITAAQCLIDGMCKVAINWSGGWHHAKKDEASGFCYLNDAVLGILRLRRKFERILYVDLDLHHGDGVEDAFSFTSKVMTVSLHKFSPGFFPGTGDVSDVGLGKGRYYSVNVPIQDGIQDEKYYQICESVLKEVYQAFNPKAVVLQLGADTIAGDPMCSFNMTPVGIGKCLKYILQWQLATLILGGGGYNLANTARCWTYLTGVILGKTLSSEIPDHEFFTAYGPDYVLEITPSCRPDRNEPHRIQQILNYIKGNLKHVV
Description: (§1) Therefore, the first stage of biological evaluation focused on determining inhibitory concentration (IC50) values of the squaric acid derivatives against HDAC8 and HDAC4 using purified recombinant enzymes. Enzymatic inhibition was quantified using 10‐point dose–response assays, from which IC50 values were calculated (Table 1). HDAC8 and HDAC4 were employed at concentrations of 10 nM and 1 nM, respectively, while other zinc‐dependent HDAC isoenzymes were used at approximate concentrations of ∼1 nM, reflecting the purity of the commercially available preparations. […]
(§2) 1.3.1 HDAC Assay General Inform ation
(§3) The activity of HDAC1, HDAC4, HDAC6, HDAC8, and HDAC11 was determined using a fluorometric assay in black half-area 96-well microplates (Greiner Bio -One , Germany). HDAC1 (#50051) and HDAC 6 (#50006) were purchased from BPS Bioscience.
(§4) HDAC4, HDAC8 and HDAC11 were produced in house as previously described.7- 9 The enzymes were pre-incubated with serial dilutions of the compounds for 1 hour at 30 °C in either assay buffer (25 mM Tris-HCl, 75 mM KCl and 0.001% (v/v) Pluronic F -127, pH 8.0) or MAL buffer (137 m M NaCl, 50 mM Tris-HCl, 2.7 mM KCl, 1 mM MgCl₂, 0 .5 mg/ml bovine serum albumin (BSA), pH 8.0b) for HDAC11. The enzyme reaction was initiated by the addition of the following substrates: 20 µM Boc-L ys(T FA) -AMC for HDAC4 and HDAC8; 80 µM Boc-L ys(T FA) -AMC for HDAC11; and 50 µM Boc -Lys(Ac)-AMC for HDAC1 and HDAC6. After an incubation period of 60 minutes, the reaction was terminated by the addition of 1.7 µM 9,9,9-trifluoro-8-oxo-N -phenyl -nonanamide (SATFMK) for […]
(§5) HDAC6, and 1 µM 1,1-dimethyl -2-[5-(trifluoromethyl)pyrazin-2-yl]isoindoline -4-carbohydroxamic acid (FT895) for HDAC11. The deacetylated substrate was then cleaved into fluorescent 7-amino -4- methylcoumarin (AMC) by the addition of 0.42 mg/mL trypsin.
(§6) Measurements were performed using a PHERAstar FS fluorescence microplate reader (BMG LABTECH) with excitation at 360 nm and emission at 460 nm. The normalised enzyme activities were plotted against the respective ligand concentration and fitted with a four-parameter logistic function using GraphPad Prism 6 software.

[2] = biological target: T2, HDAC4 (Homo sapiens, UniProt P56524); assay: HDAC4 fluorometric enzyme inhibition assay, purified recombinant enzyme, 10-point dose-response; conditions: Table 1; purified recombinant HDAC4 1 nM; mean of three independent experiments; >35 µM = weak inhibitor
T2 construct: made in house
Description: as §1, §2, §3, §4, §5, §6

[3] = biological target: T3, HDAC1 (Homo sapiens, UniProt Q13547); assay: HDAC1 fluorometric enzyme inhibition assay, purified enzyme; conditions: Table 2; purified enzyme ~1 nM
T3 construct: purchased BPS Bioscience 50051
Description: as §1, §2, §3, §4, §5, §6

[4] = biological target: T4, HDAC6 (Homo sapiens, UniProt Q9UBN7); assay: HDAC6 fluorometric enzyme inhibition assay, purified enzyme; conditions: Table 2; purified enzyme ~1 nM
T4 construct: purchased BPS Bioscience 50006
T4 sequence (Q9UBN7 1-1215): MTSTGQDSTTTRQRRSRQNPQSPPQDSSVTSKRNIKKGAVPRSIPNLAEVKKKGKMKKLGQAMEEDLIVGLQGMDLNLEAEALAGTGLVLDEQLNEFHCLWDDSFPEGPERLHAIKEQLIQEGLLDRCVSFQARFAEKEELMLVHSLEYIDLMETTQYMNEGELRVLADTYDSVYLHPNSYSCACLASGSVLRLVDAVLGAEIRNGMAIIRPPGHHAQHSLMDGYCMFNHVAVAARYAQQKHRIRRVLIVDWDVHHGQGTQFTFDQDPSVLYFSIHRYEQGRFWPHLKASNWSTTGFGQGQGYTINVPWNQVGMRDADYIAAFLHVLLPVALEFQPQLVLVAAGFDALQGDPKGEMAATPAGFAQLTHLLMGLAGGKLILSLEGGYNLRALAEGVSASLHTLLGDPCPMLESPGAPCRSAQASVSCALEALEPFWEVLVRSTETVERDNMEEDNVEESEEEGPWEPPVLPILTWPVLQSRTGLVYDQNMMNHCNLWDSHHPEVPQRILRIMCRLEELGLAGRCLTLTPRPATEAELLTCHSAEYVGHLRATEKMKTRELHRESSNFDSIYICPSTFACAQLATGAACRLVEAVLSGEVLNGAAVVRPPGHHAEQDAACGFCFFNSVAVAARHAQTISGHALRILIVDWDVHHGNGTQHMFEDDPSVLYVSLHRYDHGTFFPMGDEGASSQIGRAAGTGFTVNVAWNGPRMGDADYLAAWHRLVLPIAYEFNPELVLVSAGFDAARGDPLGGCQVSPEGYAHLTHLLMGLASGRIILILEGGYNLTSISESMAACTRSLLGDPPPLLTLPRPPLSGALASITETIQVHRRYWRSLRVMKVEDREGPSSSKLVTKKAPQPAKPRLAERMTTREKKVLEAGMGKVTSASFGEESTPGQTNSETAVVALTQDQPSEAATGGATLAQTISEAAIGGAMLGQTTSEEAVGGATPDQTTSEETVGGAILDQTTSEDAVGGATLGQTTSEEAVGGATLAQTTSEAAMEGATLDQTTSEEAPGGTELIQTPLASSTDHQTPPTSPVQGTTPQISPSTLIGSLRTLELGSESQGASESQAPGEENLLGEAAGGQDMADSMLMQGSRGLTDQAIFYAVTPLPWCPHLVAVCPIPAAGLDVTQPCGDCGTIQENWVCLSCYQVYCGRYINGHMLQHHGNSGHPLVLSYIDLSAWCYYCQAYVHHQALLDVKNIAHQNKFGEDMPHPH
Description: as §1, §2, §3, §4, §5, §6

[5] = biological target: T5, HDAC11 (Homo sapiens, UniProt Q96DB2); assay: HDAC11 fluorometric enzyme inhibition assay, purified enzyme; conditions: Table 2; purified enzyme ~1 nM
T5 construct: made in house
T5 sequence (Q96DB2 1-347): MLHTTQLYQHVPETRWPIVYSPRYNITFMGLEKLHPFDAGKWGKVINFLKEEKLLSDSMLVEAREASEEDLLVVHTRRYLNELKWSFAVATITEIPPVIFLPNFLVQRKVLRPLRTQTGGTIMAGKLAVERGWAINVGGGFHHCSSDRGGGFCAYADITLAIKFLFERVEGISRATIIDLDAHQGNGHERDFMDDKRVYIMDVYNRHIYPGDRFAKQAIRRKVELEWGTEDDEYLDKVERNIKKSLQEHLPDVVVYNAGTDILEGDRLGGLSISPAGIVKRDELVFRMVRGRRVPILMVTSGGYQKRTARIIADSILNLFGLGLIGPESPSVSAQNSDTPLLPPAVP
Description: as §1, §2, §3, §4, §5, §6

T2 sequence (P56524 whole entry): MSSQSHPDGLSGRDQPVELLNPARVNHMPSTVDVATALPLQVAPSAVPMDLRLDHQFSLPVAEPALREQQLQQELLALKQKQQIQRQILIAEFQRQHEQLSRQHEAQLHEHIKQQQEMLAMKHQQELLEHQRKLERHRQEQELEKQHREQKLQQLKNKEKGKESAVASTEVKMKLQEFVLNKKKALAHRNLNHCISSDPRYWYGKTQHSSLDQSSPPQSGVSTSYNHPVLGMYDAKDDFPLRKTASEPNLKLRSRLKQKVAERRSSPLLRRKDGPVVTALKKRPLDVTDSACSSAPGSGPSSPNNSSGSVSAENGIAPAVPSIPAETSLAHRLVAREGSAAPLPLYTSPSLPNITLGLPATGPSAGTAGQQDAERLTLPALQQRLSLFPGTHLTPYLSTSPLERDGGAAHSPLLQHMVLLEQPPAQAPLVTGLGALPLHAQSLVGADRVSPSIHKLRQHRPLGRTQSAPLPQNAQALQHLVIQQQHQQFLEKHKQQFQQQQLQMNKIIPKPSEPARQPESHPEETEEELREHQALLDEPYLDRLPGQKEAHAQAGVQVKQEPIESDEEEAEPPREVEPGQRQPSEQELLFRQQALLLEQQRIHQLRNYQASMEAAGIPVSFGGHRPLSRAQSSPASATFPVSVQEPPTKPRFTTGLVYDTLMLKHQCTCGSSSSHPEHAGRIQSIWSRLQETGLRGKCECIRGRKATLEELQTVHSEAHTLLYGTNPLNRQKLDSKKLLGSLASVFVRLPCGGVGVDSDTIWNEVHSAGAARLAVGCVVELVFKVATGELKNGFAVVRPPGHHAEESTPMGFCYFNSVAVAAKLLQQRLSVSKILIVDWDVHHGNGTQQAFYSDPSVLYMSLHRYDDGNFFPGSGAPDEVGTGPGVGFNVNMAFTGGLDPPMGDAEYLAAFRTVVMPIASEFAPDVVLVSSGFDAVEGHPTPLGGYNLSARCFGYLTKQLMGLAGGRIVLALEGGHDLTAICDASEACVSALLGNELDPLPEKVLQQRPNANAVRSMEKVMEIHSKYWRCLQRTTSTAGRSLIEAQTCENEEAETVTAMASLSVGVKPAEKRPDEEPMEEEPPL
T3 sequence (Q13547 whole entry): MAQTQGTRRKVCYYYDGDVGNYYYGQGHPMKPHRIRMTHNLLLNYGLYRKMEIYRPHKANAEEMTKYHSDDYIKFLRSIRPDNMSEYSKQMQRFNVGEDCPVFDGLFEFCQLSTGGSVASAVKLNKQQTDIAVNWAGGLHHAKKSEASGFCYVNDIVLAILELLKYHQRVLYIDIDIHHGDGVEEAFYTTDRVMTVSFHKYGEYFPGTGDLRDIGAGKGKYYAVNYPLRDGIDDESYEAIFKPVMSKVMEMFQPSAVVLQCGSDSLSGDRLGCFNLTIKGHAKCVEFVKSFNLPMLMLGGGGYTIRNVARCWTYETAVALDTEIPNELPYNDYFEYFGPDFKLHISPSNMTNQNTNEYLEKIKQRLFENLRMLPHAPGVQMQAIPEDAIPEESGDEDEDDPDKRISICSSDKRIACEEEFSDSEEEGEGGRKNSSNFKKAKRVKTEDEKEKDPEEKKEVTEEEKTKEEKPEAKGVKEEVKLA

Row | Structure (SMILES) | IC50 [1] [µM] | IC50 (HDAC4)/IC50 (HDAC8) [1] | IC50 [2] [µM] | IC50 [3] [µM] | IC50 [4] [µM] | IC50 [5] [µM]
1 | CCOc1c(Nc2ccc(F)cc2)c(=O)c1=O [Compound 9b] | 1.2 ± 0.03 | 7.1 | 8.5 ± 5.3 | 7 ± 2.7 | 2.3 ± 1.6 | 25 ± 8
2 | O=c1c(NCc2ccccc2)c(NCc2ccccc2)c1=O [Compound 13b] | 1.8 ± 0.7 | 2.6 | 4.6 ± 0.9 | 8.3 ± 3.6 | 6.1 ± 3.5 | > 35
3 | CN(Cc1ccccc1)c1c(N(C)Cc2ccccc2)c(=O)c1=O [Compound 14b] | 1.3 ± 0.2 | 10.8 | 14 ± 3 | 17 ± 16 | 6.9 ± 2.5 | > 35
4 | O=c1c(Nc2ccc(Br)cc2)c(Nc2ccc(Br)cc2)c1=O [Compound 13c] | 2 ± 1 | 5.5 | 11 ± 4 | 8.1 ± 4.3 | 2.9 ± 1.3 | > 35
